Biological target: hSortilin (Homo sapiens (Human), UniProt Q99523)
Test: hSortilin affinity assay (displacement of 3H-neurotensin, SPA)
Type: binding
Conditions: for IC50: [3H]-Neurotensin 5 nM, 150 nM 6his-Sortilin, read-out: hSortilin NTS Binding IC50; for Ki: from IC50 by Cheng-Prusoff, Kd neurotensin 100 nM

Chain of hSortilin (Q99523 34-755): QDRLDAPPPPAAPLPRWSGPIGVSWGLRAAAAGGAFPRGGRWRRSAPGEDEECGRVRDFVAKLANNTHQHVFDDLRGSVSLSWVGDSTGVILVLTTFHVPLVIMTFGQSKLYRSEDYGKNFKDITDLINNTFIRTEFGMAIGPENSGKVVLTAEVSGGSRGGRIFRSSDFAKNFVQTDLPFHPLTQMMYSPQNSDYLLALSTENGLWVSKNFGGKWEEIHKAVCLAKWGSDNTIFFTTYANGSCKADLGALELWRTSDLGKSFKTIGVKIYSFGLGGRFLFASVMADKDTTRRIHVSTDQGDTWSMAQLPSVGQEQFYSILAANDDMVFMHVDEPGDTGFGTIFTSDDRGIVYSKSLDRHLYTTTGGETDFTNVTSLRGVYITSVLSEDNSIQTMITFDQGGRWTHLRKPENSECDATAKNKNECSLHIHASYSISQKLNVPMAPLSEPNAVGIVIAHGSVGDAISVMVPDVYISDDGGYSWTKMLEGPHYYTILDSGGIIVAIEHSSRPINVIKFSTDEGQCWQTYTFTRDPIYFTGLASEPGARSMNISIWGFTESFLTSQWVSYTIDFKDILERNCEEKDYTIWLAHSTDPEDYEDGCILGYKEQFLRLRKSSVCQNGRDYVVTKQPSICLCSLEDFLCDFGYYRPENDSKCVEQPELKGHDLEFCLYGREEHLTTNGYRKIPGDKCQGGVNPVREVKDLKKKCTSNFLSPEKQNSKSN

Row | Structure (SMILES) | IC50 | Ki
1 | Cc1cccc(NC(=O)c2ccc(Br)cc2C(=O)O)n1 [Example 2, 5-Bromo-N-(6-methyl-pyridin-2-yl)-phthalamic acid] | 1200 nM | 1140 nM
2 | Cc1ccc(C(=O)Nc2cccc(C)n2)c(C(=O)O)c1 [Example 3, 5-Methyl-N-(6-methyl-pyridin-2-yl)-phthalamic acid] | 6400 nM | 6100 nM
3 | Cc1cccc(NC(=O)c2ccc(Cl)cc2C(=O)O)n1 [Example 4, 5-Chloro-N-(6-methyl-pyridin-2-yl)-phthalamic acid] | 1400 nM | 1330 nM
4 | Cc1cccc(NC(=O)c2cc(Cl)c(Cl)cc2C(=O)O)n1 [Example 5, 4,5-Dichloro-N-(6-methyl-pyridin-2-yl)-phthalamic acid] | 830 nM | 790 nM
5 | N#Cc1c(NC(=O)c2ccc(Br)cc2C(=O)O)sc2c1CCCC2 [Example 6] | 4000 nM | 
6 | Cc1ccc(NC(=O)c2ccc(C(F)(F)F)cc2C(=O)O)nc1C [Example 7, N-(5,6-Dimethyl-pyridin-2-yl)-5-trifluoromethyl-phthalamic acid] | 170 nM | 162 nM
7 | Cc1ccnc(NC(=O)c2ccc(C(F)(F)F)cc2C(=O)O)c1 [Example 8, N-(4-methyl-pyridin-2-yl)-5-trifluoromethyl-phthalamic acid] | 1000 nM | 952 nM
8 | Cc1cc(NC(=O)c2ccc(C(F)(F)F)cc2C(=O)O)ccn1 [Example 9, N-(2-methyl-pyridin-4-yl)-5-trifluoromethyl-phthalamic acid] | 700 nM | 667 nM
9 | Cc1ccnc(NC(=O)c2cc(Cl)c(Cl)cc2C(=O)O)c1 [Example 10, 4,5-Dichloro-N-(4-methyl-pyridin-2-yl)-phthalamic acid] | 2200 nM | 2100 nM
10 | Cc1ccc(NC(=O)c2cc(Cl)c(Cl)cc2C(=O)O)nc1C [Example 11, 4,5-Dichloro-N-(5,6-Dimethyl-pyridin-2-yl)-phthalamic acid] | 480 nM | 457 nM
11 | Cc1cc(NC(=O)c2cc(Cl)c(Cl)cc2C(=O)O)ccn1 [Example 12, 4,5-Dichloro-N-(2-methyl-pyridin-4-yl)-phthalamic acid] | 1800 nM | 1710 nM
12 | Cc1nccc(NC(=O)c2cc(Cl)c(Cl)cc2C(=O)O)n1 [Example 13, 4,5-Dichloro-N-(2-methyl-pyrimidin-4-yl)-phthalamic acid] | 480 nM | 457 nM
13 | Cc1cccc(NC(=O)c2ccc(Cl)c(F)c2C(=O)O)n1 [Example 14, 5-Chloro-6-fluoro-N-(6-methyl-pyridin-2-yl)-phthalamic acid] | 4200 nM | 4000 nM
14 | Cc1cccc(NC(=O)c2cc(C)c(C)cc2C(=O)O)n1 [Example 15, 4,5-Dimethyl-N-(6-methyl-pyridin-2-yl)-phthalamic acid] | 3400 nM | 3240 nM
15 | O=C(O)c1cc(C(F)(F)F)ccc1C(=O)Nc1ncc(C(F)(F)F)cc1Cl [Example 16, 2-((3-chloro-5-(trifluoromethyl)pyridin-2-yl)carbamoyl)-5-(trifluoromethyl)benzoic acid] | 360 nM | 343 nM
16 | Cc1ccnc(NC(=O)c2ccc(C(F)(F)F)cc2C(=O)O)n1 [Example 17, 2-((4-methylpyrimidin-2-yl)carbamoyl)-5-(trifluoromethyl)benzoic acid] | 360 nM | 343 nM
17 | Cc1ncc(NC(=O)c2ccc(C(F)(F)F)cc2C(=O)O)nc1C [Example 18, 2-((5,6-dimethylpyrazin-2-yl)carbamoyl)-5-(trifluoromethyl)benzoic acid] | 240 nM | 229 nM
18 | Cc1ccc(NC(=O)c2ccc(Br)cc2C(=O)O)nc1 [Example 19, 5-Bromo-N-(5-methyl-pyridin-2-yl)-phthalamic acid] | 1700 nM | 1620 nM

Row | Structure (SMILES) | IC50 | Ki
19 | O=C(O)c1cc(Br)ccc1C(=O)Nc1ccc(Cl)cn1 [Example 20, 5-Bromo-N-(5-chloro-pyridin-2-yl)-phthalamic acid] | 990 nM | 943 nM
20 | O=C(O)c1cc(Br)ccc1C(=O)Nc1ccccn1 [Example 21, 5-Bromo-N-pyridin-2-yl-phthalamic acid] | 3600 nM | 3430 nM
21 | O=C(O)c1cc(Br)ccc1C(=O)Nc1cccc(Cl)n1 [Example 22, 5-Bromo-N-(6-chloro-pyridin-2-yl)-phthalamic acid] | 1600 nM | 1520 nM
22 | Cc1ccc(NC(=O)c2ccc(Br)cc2C(=O)O)nc1C [Example 23, 5-Bromo-N-(5,6-dimethyl-pyridin-2-yl)-phthalamic acid] | 570 nM | 543 nM
23 | Cc1ccnc(NC(=O)c2ccc(Br)cc2C(=O)O)c1 [Example 24, 5-Bromo-N-(4-methyl-pyridin-2-yl)-phthalamic acid] | 2400 nM | 2290 nM
24 | Cc1cc(NC(=O)c2ccc(Br)cc2C(=O)O)ccn1 [Example 25, 5-Bromo-N-(2-methyl-pyridin-4-yl)-phthalamic acid] | 1800 nM | 1710 nM
25 | O=C(O)c1cc(Br)ccc1C(=O)Nc1cccnc1 [Example 26] | 5500 nM | 5240 nM
26 | Cc1csc(NC(=O)c2ccc(Br)cc2C(=O)O)n1 [Example 28, 5-Bromo-N-(4-methyl-thiazol-2-yl)-phthalamic acid] | 3600 nM | 3430 nM
27 | O=C(O)c1cc(Br)ccc1C(=O)Nc1ccc2ccccc2n1 [Example 29, 5-Bromo-N-quinolin-2-yl-phthalamic acid] | 1300 nM | 1240 nM
28 | O=C(O)c1cc(Br)ccc1C(=O)Nc1ccc(Cl)c(Cl)n1 [Example 30, 5-Bromo-N-(5,6-dichloro-pyridin-2-yl)-phthalamic acid] | 2100 nM | 2000 nM
29 | Cc1ccc(NC(=O)c2ccc(Br)cc2C(=O)O)nn1 [Example 32, 5-Bromo-N-(6-methyl-pyridazin-3-yl)-phthalamic acid] | 3200 nM | 3050 nM
30 | Cc1cc(C)nc(NC(=O)c2ccc(Br)cc2C(=O)O)c1 [Example 33, 5-Bromo-N-(4,6-dimethyl-pyridin-2-yl)-phthalamic acid] | 970 nM | 924 nM
31 | Cc1nccc(NC(=O)c2ccc(Br)cc2C(=O)O)n1 [Example 34, 5-Bromo-N-(2-methyl-pyrimidin-4-yl)-phthalamic acid] | 490 nM | 467 nM
32 | Cc1cc(NC(=O)c2ccc(Br)cc2C(=O)O)ncn1 [Example 35, 5-Bromo-N-(6-methyl-pyrimidin-4-yl)-phthalamic acid] | 2000 nM | 1900 nM
33 | COc1cc(NC(=O)c2ccc(C(F)(F)F)cc2C(=O)O)ccn1 [Example 36, N-(2-Methoxy-pyridin-4-yl)-5-trifluoromethyl-phthalamic acid] | 750 nM | 714 nM
34 | COc1cccc(NC(=O)c2ccc(C(F)(F)F)cc2C(=O)O)n1 [Example 37, N-(6-Methoxy-pyridin-2-yl)-5-trifluoromethyl-phthalamic acid] | 1300 nM | 1240 nM
35 | O=C(O)c1cc(C(F)(F)F)ccc1C(=O)NCc1ccccn1 [Example 38, N-Pyridin-2-ylmethyl-5-trifluoromethyl-phthalamic acid] | 1600 nM | 1520 nM
36 | O=C(O)c1cc(C(F)(F)F)ccc1C(=O)NCc1ccncc1 [Example 39, N-Pyridin-4-ylmethyl-5-trifluoromethyl-phthalamic acid] | 7500 nM | 7140 nM

Reference: patent US9682967B2
